Data set [1] relates to CII induced rheumatoid arthritis in DBA mice. Put plainly: Collagen type II induced model of rheumatoid arthritis. Particulars: mice in vivo; example 17 up to 40 mg/kg/day; methotrexate 10 mg/kg/day, 3 times a week. The source says:
Collagen type II (hereinafter referred as CII) induced experimental model of rheumatoid arthritis (hereinafter referred as RA) in DBA mice is widely accepted as the most relevant and predictive preclinical model for RA. In this model, DBA mice are immunized with CII, the collagen type mainly present in the joint structures, together with complete Freund Adjuvant in their tail. 2 to 3 weeks later, several of the immunized mice start to develop arthritis in the four footpaths. In order to further worsen the disease, mice are given a second CII boost at three weeks after the first immunisation, this time however in a footpath. Because the immune system is already immunised in these mice, this rapidly provokes a severe swelling of the injected footpath (named Delayed Type Hypersensitivity or DTH) which can be used as a measurement for T-cell activation. Within a few days after the booster, almost all untreated animals start developing symptoms of arthritis. RA development is scored from 0 to 16 (16 being severe clinical arthritis in all four footpaths). At the end of the study (3 weeks after the CII boost) antibody formation was determined against CII and histology performed on the footpaths.
The efficiency of the pteridine derivative of example 17 (administered in an amount of 20 mg/kg/day, started one day before the CII boost) was explored in this CII-model.

Data set [2] concerns TNBS-induced colitis in C57 BL/6 male mice. Put plainly: Trinitrobenzenesulfonate-induced colitis test in mice (Example 210). Format: in vivo. The procedure: C57 BL/6 male mice (4-5 weeks) were obtained from M&B (Denmark), bred under standard pathogen-free conditions and maintained in the certified animal facility of the University Hospital Gasthuisberg, Catholic University of Leuven (Leuven, Belgium). Experiments were approved by the local Ethical Committee of Animal Experimentation. Colitis was induced by rectal administration of 1 mg trinitrobenzenesulphonate (hereinafter referred as TNBS) in 50% ethanol with 2 times pre-sensitization. Briefly, mice were sensitized twice 10 days and 5 days before challenge. For sensitization, a 2×2 cm field of the abdominal skin was shaved, and 100 μl of 5 mg TNBS in 50% ethanol solution was applied. On the day of challenge, mice were first lightly anesthetized with metofane, subsequently TNBS was administered per rectum via a round-tip needle equipped with a 1-ml syringe. The tip of the needle was inserted so that the tip was 3.5 to 4 cm proximal to the anal verge and TNBS was injected with a total volume of 100 μl. To ensure distribution of TNBS within the entire colon and cecum, mice were held in a vertical position for 1 minute after the injection.
The compound of example 17 (2-amino-4-[(N-phenoxyacetyl)-piperazin-1-yl]-6-(3,4-dimethoxy-phenyl)pteridine) was given by daily intra-peritoneal injection at the dose of 20 mg/kg (400 μg dissolved in 100 μl PBS with 10% DMSO). Control mice were treated with vehicle only. Body weights of all animals were recorded daily in order to follow the development of inflammatory colitis over a period of 10 days.
Both macroscopic and microscopic histology evaluations were performed as follows. Briefly, mice were sacrificed at day 2 by cervical […], the colon was excised and was immediately examined visually, and damage was scored on a 0-12 scale, as described previously by Shen et al. in Int. Immunopharmacol. (2004), 4:939-951. Colon sections were then fixed in 6% formalin and embedded in paraffin, cut into sections, and then stained with hematoxylin and eosin. Stained sections were examined for evidence of colitis using as criteria the presence of cell infiltration, elongation and/or distortion of crypts, crypt abscesses, reduction in goblet cell number, frank ulceration, and edema formation.
Myeloperoxidase (MPO) activity was measured as described previously by Shen et al. (cited supra). Briefly, two days after intracolonic injection of TNBS, 50 mg colon was removed, homogenised and sonicated on ice. Samples were frozen in liquid nitrogen and subsequently thawed in a water bath at 37° C., each step lasted 3 minutes and the procedure was repeated for two cycles. After centrifugation an aliquot of the supernatant was then allowed to react with a solution of tetra-methyl-benzidine (1.6 mM) and 0.1 mM H2O2. The rate of change in absorbance was measured spectrophotometrically at 460 nm. MPO activity was defined as the quantity of enzyme degrading 1 μmol of peroxide/minute at 37° C. and was expressed in units per gram weight of wet tissue. Sample enzyme activity was measured from a standard curve of known MPO unit activity (assay sensitivity 5×10^−7 units per well).
Serum levels of antibodies generated against TNBS were measured in the mouse sera on the 10th day after disease induction by enzyme-linked immunosorbent assay (ELISA). The ELISA method used herein is as reported in detail by Shen et al (cited supra).
Quantitative Reverse Transcriptase (RT)-PCR for cytokine mRNA was performed as follows: part of the colon removed on day 2 after TNBS application was immediately frozen in liquid nitrogen after dissection and stored at −70° C. until extraction of total RNA using the method of Shen et al (cited supra). A constant amount of 1 μg of total RNA was used for oligo-(dT)-primed cDNA synthesis (Ready-to-go-kit, Pharmacia, Uppsala, Sweden). After 90 minutes at 37° C., the reverse transcriptase was inactivated by incubating the cDNA samples for 5 minutes at 95° C. […]

`COc1ccc(-c2cnc3nc(N)nc(N4CCN(C(=O)COc5ccccc5)CC4)c3n2)cc1OC` [Example 17, 2-amino-4-[(N-phenoxyacetyl)-piperazin-1-yl]-6-(3,4-dimethoxy-phenyl)pteridine]: the “mortality or cytotoxic effect on increasing the dose” value in data set [1] is “no mortality or cytotoxic effect”. Also, the “days required to recover original body weight” value in data set [2] (daily i.p. 20 mg/kg) came to 6 days. Further, the microscopic score in data set [2] (daily i.p. 20 mg/kg, day 2) came to 6.0±0.7. In addition, in data set [2] (daily i.p. 20 mg/kg, day 2, 0-12 scale), the average macroscopic score was found to be 6.3±0.7. Moreover, the “MPO activity in colon” value in data set [2] (daily i.p. 20 mg/kg, two days after TNBS) was determined as 8.9±2.0 U/g. Further, the “reduction in average macroscopic score” value in data set [2] (daily i.p. 20 mg/kg, versus control mice) stood at 30%. The “cytokine mRNA levels for TNF-α, IL-18 and IFN-γ in colon” value in data set [2] (day 2, differences did not reach statistical significance) is given as “all reduced”. The “Anti-TNBS antibody (IgG2a) levels” value in data set [2] (serum, after treatment) was 76.6±3.3 OD. Also, in data set [2] (serum, compared to untreated mice), the “Anti-TNBS antibody (IgG1) levels” value was “significantly lower”.
